The NIST ThermoML archive (doi:10.1016/j.fluid.2013.08.005)
± gives the expanded uncertainty stated by the source.

Assay: molar heat capacity at constant pressure; mn = molality of the nth substance listed, in mol/kg
Conditions: 101 kPa, Liquid, Large sample (1 g) DSC

CCCCCCCC[N+](C)(C)C.[Br-] [octyl trimethyl ammonium bromide] + O
molar heat capacity at constant pressure [J/K/mol]
Conditions	298.15 K	303.15 K	308.15 K	313.15 K
m1 = 0.00997	75.46 ± 1.3	75.44 ± 1.3	75.44 ± 1.3	75.45 ± 1.3
m1 = 0.01501	75.58 ± 1.3	75.55 ± 1.3	75.54 ± 1.3	75.55 ± 1.3
m1 = 0.025	75.69 ± 1.3	75.66 ± 1.3	75.65 ± 1.3	75.66 ± 1.3
m1 = 0.04	75.85 ± 1.3	75.83 ± 1.3	75.82 ± 1.3	75.83 ± 1.3
m1 = 0.05	75.95 ± 1.3	75.93 ± 1.3	75.92 ± 1.3	75.93 ± 1.3
m1 = 0.07502	76.27 ± 1.3	76.24 ± 1.3	76.23 ± 1.3	76.25 ± 1.3
m1 = 0.08	76.32 ± 1.3	76.29 ± 1.3	76.29 ± 1.3	76.3 ± 1.3
m1 = 0.08509	76.4 ± 1.3	76.38 ± 1.3	76.36 ± 1.3	76.36 ± 1.3
m1 = 0.09999	76.54 ± 1.3	76.51 ± 1.3	76.5 ± 1.3	76.51 ± 1.3
m1 = 0.1202	76.79 ± 1.3	76.74 ± 1.3	76.74 ± 1.3	76.77 ± 1.3
m1 = 0.125	76.85 ± 1.3	76.82 ± 1.3	76.81 ± 1.3	76.81 ± 1.3
m1 = 0.1397	76.98 ± 1.3	76.95 ± 1.3	76.93 ± 1.3	76.93 ± 1.3
m1 = 0.15	77.1 ± 1.3	77.08 ± 1.3	77.07 ± 1.3	77.08 ± 1.3
m1 = 0.16	77.21 ± 1.3	77.19 ± 1.3	77.17 ± 1.3	77.15 ± 1.3
m1 = 0.175	77.41 ± 1.3	77.38 ± 1.3	77.37 ± 1.3	77.37 ± 1.3
m1 = 0.1799	77.47 ± 1.3	77.44 ± 1.3	77.43 ± 1.3	77.42 ± 1.3
m1 = 0.1898	77.59 ± 1.3	77.55 ± 1.3	77.54 ± 1.3	77.53 ± 1.3
m1 = 0.2	77.66 ± 1.3	77.63 ± 1.3	77.61 ± 1.3	77.61 ± 1.3
m1 = 0.2197	77.9 ± 1.3	77.87 ± 1.3	77.85 ± 1.3	77.83 ± 1.3
m1 = 0.24	78.15 ± 1.4	78.11 ± 1.4	78.09 ± 1.4	78.08 ± 1.4
m1 = 0.25	78.24 ± 1.4	78.2 ± 1.4	78.18 ± 1.4	78.17 ± 1.4
m1 = 0.2601	78.37 ± 1.4	78.32 ± 1.4	78.29 ± 1.4	78.28 ± 1.4
m1 = 0.2751	78.52 ± 1.4	78.47 ± 1.4	78.44 ± 1.4	78.42 ± 1.4
m1 = 0.2801	78.66 ± 1.4	78.63 ± 1.4	78.59 ± 1.4	78.56 ± 1.4
m1 = 0.2999	78.81 ± 1.4	78.74 ± 1.4	78.69 ± 1.4	78.67 ± 1.4
m1 = 0.3251	79.06 ± 1.4	78.99 ± 1.4	78.94 ± 1.4	78.91 ± 1.4
m1 = 0.3497	79.28 ± 1.4	79.2 ± 1.4	79.15 ± 1.4	79.13 ± 1.4
m1 = 0.3749	79.51 ± 1.4	79.43 ± 1.4	79.39 ± 1.4	79.37 ± 1.4
m1 = 0.4	79.68 ± 1.4	79.61 ± 1.4	79.57 ± 1.4	79.56 ± 1.4
m1 = 0.4248	79.91 ± 1.4	79.85 ± 1.4	79.83 ± 1.4	79.83 ± 1.4
m1 = 0.4742	80.26 ± 1.4	80.22 ± 1.4	80.2 ± 1.4	80.2 ± 1.4
m1 = 0.5499	80.8 ± 1.4	80.74 ± 1.4	80.73 ± 1.4	80.77 ± 1.4
m1 = 0.6251	81.38 ± 1.4	81.36 ± 1.4	81.37 ± 1.4	81.41 ± 1.4
m1 = 0.7072	81.85 ± 1.4	81.84 ± 1.4	81.87 ± 1.4	81.93 ± 1.4
m1 = 1.277	85.58 ± 1.5	85.68 ± 1.5	85.8 ± 1.5	85.96 ± 1.5
m1 = 2.09	90.58 ± 1.6	90.8 ± 1.6	91.05 ± 1.6	91.33 ± 1.6

CCCCCC[N+](C)(C)C.[Br-] [hexyltrimethylammonium bromide] + O
molar heat capacity at constant pressure [J/K/mol]
Conditions	298.15 K	303.15 K	308.15 K	313.15 K
m1 = 0.01002	75.42 ± 1.3	75.39 ± 1.3	75.38 ± 1.3	75.39 ± 1.3
m1 = 0.02406	75.57 ± 1.3	75.55 ± 1.3	75.54 ± 1.3	75.55 ± 1.3
m1 = 0.03	75.65 ± 1.3	75.62 ± 1.3	75.61 ± 1.3	75.63 ± 1.3
m1 = 0.03989	75.72 ± 1.3	75.7 ± 1.3	75.69 ± 1.3	75.69 ± 1.3
m1 = 0.045	75.7 ± 1.3	75.68 ± 1.3	75.67 ± 1.3	75.7 ± 1.3
m1 = 0.04985	75.78 ± 1.3	75.76 ± 1.3	75.75 ± 1.3	75.76 ± 1.3
m1 = 0.05497	75.82 ± 1.3	75.79 ± 1.3	75.78 ± 1.3	75.8 ± 1.3
m1 = 0.05996	75.89 ± 1.3	75.86 ± 1.3	75.86 ± 1.3	75.87 ± 1.3
m1 = 0.07507	75.97 ± 1.3	75.95 ± 1.3	75.94 ± 1.3	75.95 ± 1.3
m1 = 0.07976	76.04 ± 1.3	76.02 ± 1.3	76.02 ± 1.3	76.02 ± 1.3
m1 = 0.09	76.13 ± 1.3	76.11 ± 1.3	76.11 ± 1.3	76.12 ± 1.3
m1 = 0.09694	76.14 ± 1.3	76.12 ± 1.3	76.11 ± 1.3	76.13 ± 1.3
m1 = 0.11	76.31 ± 1.3	76.29 ± 1.3	76.28 ± 1.3	76.3 ± 1.3
m1 = 0.1199	76.37 ± 1.3	76.35 ± 1.3	76.35 ± 1.3	76.36 ± 1.3
m1 = 0.1251	76.39 ± 1.3	76.36 ± 1.3	76.36 ± 1.3	76.38 ± 1.3
m1 = 0.1301	76.52 ± 1.3	76.51 ± 1.3	76.51 ± 1.3	76.52 ± 1.3
m1 = 0.14	76.58 ± 1.3	76.56 ± 1.3	76.55 ± 1.3	76.57 ± 1.3
m1 = 0.1502	76.59 ± 1.3	76.57 ± 1.3	76.57 ± 1.3	76.58 ± 1.3
m1 = 0.1751	76.79 ± 1.3	76.78 ± 1.3	76.77 ± 1.3	76.78 ± 1.3
m1 = 0.1993	77 ± 1.3	76.98 ± 1.3	76.98 ± 1.3	77 ± 1.3
m1 = 0.2248	77.21 ± 1.3	77.19 ± 1.3	77.19 ± 1.3	77.21 ± 1.3
m1 = 0.2507	77.41 ± 1.3	77.4 ± 1.3	77.41 ± 1.3	77.43 ± 1.3
m1 = 0.2757	77.59 ± 1.3	77.58 ± 1.3	77.59 ± 1.3	77.61 ± 1.3
m1 = 0.2801	77.65 ± 1.3	77.64 ± 1.3	77.66 ± 1.3	77.71 ± 1.3
m1 = 0.2851	77.71 ± 1.3	77.7 ± 1.3	77.69 ± 1.3	77.71 ± 1.3
m1 = 0.2996	77.82 ± 1.3	77.8 ± 1.3	77.8 ± 1.3	77.83 ± 1.3
m1 = 0.3222	78.01 ± 1.4	78 ± 1.4	78.01 ± 1.4	78.06 ± 1.4
m1 = 0.3311	78.06 ± 1.4	78.05 ± 1.4	78.06 ± 1.4	78.09 ± 1.4
m1 = 0.3512	78.21 ± 1.4	78.21 ± 1.4	78.21 ± 1.4	78.23 ± 1.4
m1 = 0.4002	78.59 ± 1.4	78.59 ± 1.4	78.6 ± 1.4	78.64 ± 1.4
m1 = 0.4258	78.85 ± 1.4	78.84 ± 1.4	78.84 ± 1.4	78.86 ± 1.4
m1 = 0.4503	79 ± 1.4	78.99 ± 1.4	79 ± 1.4	79.02 ± 1.4
m1 = 0.4998	79.37 ± 1.4	79.37 ± 1.4	79.38 ± 1.4	79.41 ± 1.4
m1 = 0.5263	79.58 ± 1.4	79.57 ± 1.4	79.58 ± 1.4	79.61 ± 1.4
m1 = 0.5513	79.72 ± 1.4	79.73 ± 1.4	79.75 ± 1.4	79.77 ± 1.4
m1 = 0.5742	79.94 ± 1.4	79.95 ± 1.4	79.96 ± 1.4	79.98 ± 1.4
m1 = 0.6007	80.15 ± 1.4	80.16 ± 1.4	80.18 ± 1.4	80.22 ± 1.4
m1 = 0.6516	80.55 ± 1.4	80.56 ± 1.4	80.57 ± 1.4	80.59 ± 1.4
m1 = 0.701	80.9 ± 1.4	80.91 ± 1.4	80.92 ± 1.4	80.95 ± 1.4
m1 = 0.7517	81.28 ± 1.4	81.29 ± 1.4	81.31 ± 1.4	81.33 ± 1.4
m1 = 0.8016	81.66 ± 1.4	81.67 ± 1.4	81.68 ± 1.4	81.71 ± 1.4
m1 = 0.8842	82.28 ± 1.4	82.29 ± 1.4	82.31 ± 1.4	82.33 ± 1.4
m1 = 0.9496	82.77 ± 1.4	82.78 ± 1.4	82.79 ± 1.4	82.81 ± 1.4
m1 = 0.9915	83.01 ± 1.4	83.02 ± 1.4	83.05 ± 1.4	83.08 ± 1.4
